Source: article PMC7277793 (Biomolecules, 2020)
Where a name gives a salt, the structure may show the parent alone.

Experiments:
MARK4 [1] = target: T1, MARK4 (Homo sapiens, UniProt Q96L34); experiment: Isothermal titration calorimetry; assay type: binding; settings: ITC, 25 °C, 20 µM MARK4; for Kd: 100 µM DP or 200 µM RT in syringe
T1 construct: made in house
T1 sequence (Q96L34 1-752): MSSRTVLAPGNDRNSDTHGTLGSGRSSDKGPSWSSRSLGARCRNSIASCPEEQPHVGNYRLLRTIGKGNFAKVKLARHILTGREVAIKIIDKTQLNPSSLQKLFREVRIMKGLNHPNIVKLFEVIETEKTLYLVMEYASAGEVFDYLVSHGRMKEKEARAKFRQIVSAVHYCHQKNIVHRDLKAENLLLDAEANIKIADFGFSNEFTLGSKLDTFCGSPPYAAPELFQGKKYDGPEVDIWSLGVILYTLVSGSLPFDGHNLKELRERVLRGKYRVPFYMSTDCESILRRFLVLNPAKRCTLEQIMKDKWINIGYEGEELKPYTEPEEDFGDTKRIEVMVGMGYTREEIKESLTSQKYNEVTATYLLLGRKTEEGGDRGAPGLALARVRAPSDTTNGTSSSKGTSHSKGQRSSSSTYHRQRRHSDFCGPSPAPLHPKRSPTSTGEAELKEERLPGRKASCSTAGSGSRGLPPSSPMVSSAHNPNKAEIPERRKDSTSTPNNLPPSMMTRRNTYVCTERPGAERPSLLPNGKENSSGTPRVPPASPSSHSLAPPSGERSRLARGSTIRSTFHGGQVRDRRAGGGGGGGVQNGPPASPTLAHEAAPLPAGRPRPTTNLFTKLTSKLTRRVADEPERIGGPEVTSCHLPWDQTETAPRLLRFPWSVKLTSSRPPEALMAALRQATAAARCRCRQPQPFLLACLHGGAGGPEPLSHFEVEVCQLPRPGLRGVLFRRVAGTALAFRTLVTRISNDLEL
Description: Isothermal titration calorimetry (ITC) measurements were carried out on a VP-ITC microcalorimeter (MicroCal, Inc, GE, MicroCal, Northampton, MA, USA) at 25 °C. All the solutions were degassed in thermovac for 20 min to remove air bubbles. For sample preparation, recombinant MARK4 was extensively dialyzed in 20 mM Tris buffer, pH 8.5. […] We used standard protocol to run the ITC in which the first injection was a false injection of 2 μL followed by injections of 10 μL of the ligands at a span of 260 s intervals into the sample cell. The stirring rate was maintained at 320 rpm. The obtained titration data were analyzed by Origin 8.0 software to estimate thermodynamic parameters such as stoichiometry of binding (n), enthalpy change (ΔH), an association constant (Ka).

MARK4 [2] = target: T1, MARK4; experiment: Fluorescence quenching binding study of MARK4 with DP and RT; settings: for Kq (quenching rate constant): Kq=Ksv/τ0, τ0 2.7 × 10^−9 s; for Ksv (Stern−Volmer constant): MARK4 4 μM; for n (number of the binding site) / Kd: modified Stern−Volmer plot; for ΔG (change in Gibbs free energy): van't Hoff equation; for mode of fluorescence quenching of the MARK4 complex: from temperature dependency of Ksv and from Kq; for ΔH (change in enthalpy) / ΔS (change in entropy): van't Hoff plot over 293, 296, 298 K, same value printed in each temperature row; for Kd: K (binding constant)
Excerpt: The observed fluorescence intensities were corrected for the inner filter effect. Obtained data were fitted into the Stern−Volmer and modified Stern−Volmer equations to estimate Stern-Volmer constant (Ksv), binding constant (Ka), and the number of binding sites (n).
Equation (1) (van’t Hoff equation) was used to find the thermodynamic parameters such as changes in enthalpy, entropy, and Gibbs free energy associated with the reaction. (1) ΔG=−RTLnK=ΔH−TΔS
K is the obtained binding constant, ΔH is the associated enthalpy change and ΔG is the associated free Gibbs energy change. ΔS denotes the associated entropy change with reaction, and R is the universal gas constant.
The slope of the van’t Hoff plot (LnK on Y-axis against 1/T on the X-axis) gives the value of −ΔH/R, and the intercept giving the value of ΔS/R.
The intrinsic fluorescence of protein due to tryptophan is often used to get an insight into the ligand binding to the protein because binding often leads to changes in the surrounding environment around tryptophan residues which corresponds to observed changes in fluorescence. The recombinant MARK4 was expressed and purified to carry out all binding studies.
Ksv was obtained from the slope of this plot at a fixed intercept after linear regression using the Stern−Volmer equation (Equation (2)). (2) F0/F=1+Ksv[C]
The SV plot of combined quenching (both static and dynamic) is characteristically an upward curvature while the linear Stern−Volmer plot depicts that only one mode of quenching was operative. […] The linear plot and upward curvature are not enough to define the quenching type. […] Equation (3) uses Ksv and τo (average integral fluorescence lifetime of tryptophan) (2.7 × 10^−9 s) to find biomolecular quenching rate constant (Kq) (3) Kq=Ksv/τ0
To get insights into other binding parameters, Equation (4) was used. This equation gives binding constant (K) and the number of binding sites (n). (4) logF0−F/F=logK+nlog[C]

MARK4 [3] = target: T1, MARK4; experiment: ATPase inhibition assay (malachite green, BIOMOL reagent); assay type: biochemical; settings: MARK4 4 μM, ligand 0–20 μM, pre-incubated 60 min, 200 μM ATP, 25 °C; AAT Bioquest calculator
Description: The activity of MARK4 was measured using standard malachite green (BIOMOL® reagent, Enzo Life Sciences) microtitre-plate assay using previously-published protocols [17, 40].
Initially, MARK4 (4 μM) was pre-incubated with increasing concentrations of ligands at room temperature for 60 min in a 96-well plate. Subsequently, 200 μM of freshly-prepared ATP was mixed to the reaction mixture and incubated for 15–20 min at 25 °C. At the end of this time, BIOMOL® reagent was added and kept for 15–20 min. The intensity of color was spectrophotometrically measured at 620 nm.

| Compound | ∆S1 (MARK4 [1]) [cal/mol/deg] | ∆S2 (MARK4 [1]) [cal/mol/deg] | TΔS (MARK4 [2]; 293 K) [kcal/mol] | Kq (quenching rate constant) (MARK4 [2]; 293 K) | n (number of the binding site) (MARK4 [2]; 293 K) | ΔG (change in Gibbs free energy) (MARK4 [2]; 293 K) [kcal/mol] | TΔS (MARK4 [2]; 296 K) [kcal/mol] | Kq (quenching rate constant) (MARK4 [2]; 296 K) | n (number of the binding site) (MARK4 [2]; 296 K) | ΔG (change in Gibbs free energy) (MARK4 [2]; 296 K) [kcal/mol] | TΔS (MARK4 [2]; 298 K) [kcal/mol] | Kq (quenching rate constant) (MARK4 [2]; 298 K) | n (number of the binding site) (MARK4 [2]; 298 K) | mode of fluorescence quenching of the MARK4 complex (MARK4 [2]) | ΔH (change in enthalpy) (MARK4 [2]) [kcal/mol] | ΔS (change in entropy) (MARK4 [2]) [cal mol^−1K^−1] | further results |
| --- | --- | --- | --- | --- | --- | --- | --- | --- | --- | --- | --- | --- | --- | --- | --- | --- | --- |
| COc1cc2c(cc1OC)C(=O)C(CC1CCN(Cc3ccccc3)CC1)C2 (stereo not drawn) [DP, Donepezil] | 51.2 | -207 | -126.79 | 6.85 10^14 M^−1 s^−1 | 1.66 | -10.70 | -128.09 | 5.81 10^14 M^−1 s^−1 | 1.311 | -9.40 | -128.95 | 5.03 10^14 M^−1 s^−1 | 0.1 | static mode | -137.5 | −432.749 | ∆S3 (MARK4 [1]): 368 cal/mol/deg; ∆S4 (MARK4 [1]): -327 cal/mol/deg; Ksv (Stern−Volmer constant) (MARK4 [2]; 293 K, DP 0−200 nM): 18.5 10^5 M^−1; Ksv (Stern−Volmer constant) (MARK4 [2]; 296 K, DP 0−200 nM): 15.7 10^5 M^−1; Ksv (Stern−Volmer constant) (MARK4 [2]; 298 K, DP 0−200 nM): 13.6 10^5 M^−1 |
| CCN(C)C(=O)Oc1cccc([C@H](C)N(C)C)c1 [RT, rivastigmine tartrate] | 31.1 | -700 | -133.48 | 1.25 10^13 M^−1 s^−1 | 1.66 | -10.74 | -135.76 | 1.44 10^13 M^−1 s^−1 | 1.311 | -8.46 | -138.04 | 2.14 10^13 M^−1 s^−1 | 0.94 | combination of static and dynamic modes of quenching | -144.23 | −455.78 | Kd (MARK4 [1]; read-out: Ka1 (association constant) (converted)): 9.8 µM; Kd (MARK4 [1]; read-out: Ka2 (association constant) (converted)): 8.55 µM; Kd (MARK4 [1]; read-out: Ka3 (association constant) (converted)): 5 µM; IC50 (MARK4 [3]): 6.74 µM; Ksv (Stern−Volmer constant) (MARK4 [2]; 293 K, RT 0−9 µM): 3.4 10^4 M^−1; Ksv (Stern−Volmer constant) (MARK4 [2]; 296 K, RT 0−9 µM): 3.9 10^4 M^−1; Ksv (Stern−Volmer constant) (MARK4 [2]; 298 K, RT 0−9 µM): 5.8 10^4 M^−1; ΔG (change in Gibbs free energy) (MARK4 [2]; 298 K): -6.18 kcal/mol; Kd (MARK4 [2]; 293 K): 9.52 nM; Kd (MARK4 [2]; 296 K): 625 nM; Kd (MARK4 [2]; 298 K): 50000 nM |
